From paper PMC4502315, “High Potency of a Novel Resveratrol Derivative, 3,3′,4,4′-Tetrahydroxy-trans-stilbene, against Ovarian Cancer Is Associated with an Oxidative Stress-Mediated Imbalance between DNA Damage Accumulation and Repair” (Oxidative Medicine and Cellular Longevity, 2015)

Key:
[1] = tested on: SKOV-3 cells; assay: Apoptosis (Hoechst 33258), SKOV-3; format: cell-based, human; details: 24 h, 10, 50, 100 μM tested
Protocol: (§1) Identification of apoptosis was based on the presence of DNA condensation in cells stained with a fluorescent dye, Hoechst 33258 (Molecular Probes, Eugene, OR). Cells were grown on Lab-Tek Chamber Slides (Nunc, Roskilde, Denmark), fixed with 4% formaldehyde for 10 min and washed twice with PBS. Then the cells were incubated with Hoechst 33258 (0.1 μg/mL) for 5 min in the dark. After washing with PBS, stained nuclei were observed and counted under a Zeiss Axio Observer D1 fluorescence microscope (Carl Zeiss, Jena, Germany). The activity of caspases 3, 8, and 9 was quantified in the cell lysates using specific colorimetric kits (Abcam, Cambridge, UK) according to the manufacturer's instructions.

[2] = tested on: OVCAR-3; assay: MTT viability assay, OVCAR-3; format: cell-based; details: Homo sapiens, 24 h; for IC50: CalcuSyn
Protocol: (§2) Cell viability was assessed with the MTT test and with lactate dehydrogenase (LDH) release assay. As per the MTT method, normal and cancer cells were seeded into 96-well plates at high density and allowed to attach overnight. Then they were incubated in a medium containing 1.25 mg/mL of the MTT salt [3-(4,5-dimethylthiazol-2-yl)-2,5-diphenyltetrazolium bromide] for 24 h at 37°C. The generated formazan was solubilized with 20% sodium dodecyl sulphate and 50% N,N-dimethylformamide. Absorbance of the converted dye was recorded at 595 nm with a reference wavelength of 690 nm.
(§3) In order to examine the effect of 3,3′,4,4′-THS on the viability of ovarian cancer cells and to compare its activity with RVT, subconfluent cultures of A2780, OVCAR-3, and SKOV-3 cells were subjected to a wide range of stilbene concentrations (0–500 μM) for 24 h; then MTT and LDH release assays were performed.

[3] = tested on: SKOV-3 cells; assay: Oxidative DNA damage (8-OH-dG immunoassay), SKOV-3; format: cell-based, human; details: 24 h, 10, 50, 100 μM tested
Protocol: (§4) Oxidative DNA damage was assessed by measuring the 8-OH-dG concentration with a competitive immunoassay (Cell Biolabs Inc.), as per manufacturer's instructions. The efficiency of 8-OH-dG repair was estimated after cell recovery for 24 h in standard growth medium. In order to examine the activity of DNA glycosylase I, reverse transcription PCR was performed. RNA extraction was carried out using the RNA Bee (Tel-Test, Friendswood, Texas, USA) and purified according to the manufacturer's protocol. One microgram of RNA was reverse transcribed into cDNA with random hexamer primers, and cDNA was subjected to PCR. The profile of the replication cycles was denaturation at 94°C for 50 s, annealing at 58°C for 50 s, and polymerization at 72°C for 1 min. In each reaction, the expression of glyceraldehyde-3-phosphate dehydrogenase (GAPDH) served as the internal control. The primers used for PCR were as follows: hOGG1 forward, 5′-[…]-3′; hOGG1 reverse, 5′-TAGCCCGCCCTGTTCTTC-3′ designed to amplify a 551-bp region; GAPDH forward, 5′-CCATGGAGAAGGCTGGGG-3′; and GAPDH reverse 5′-[…]-3′ designed to amplify a 194-bp region (total number of cycles: 28). The PCR products were separated on 3% agarose gels stained with ethidium bromide and then visualized.

[4] = tested on: DNA glycosylase I (hOgg1); assay: DNA glycosylase I (hOgg1) mRNA expression (RT-PCR), ovarian cancer cells; format: cell-based, human; details: all three cancer cell lines; after preincubation with stilbene, 24-h recovery
Protocol: as §4

[5] = tested on: HOSE cells; assay: Oxidative DNA damage (8-OH-dG immunoassay), HOSE cells; format: cell-based, human; details: 24 h, percentage of control cells
Protocol: as §4

[6] = LDH release assay, HPMCs; format: cell-based, human; details: human, percentage of control cells
[7] = MTT viability assay, HPMCs; format: cell-based, human; details: human, percentage of control cells
Protocol: as §2, §3

[8] = tested on: OVCAR-3 cells; assay: Apoptosis (Hoechst 33258), OVCAR-3; format: cell-based, human; details: 24 h, 10, 50, 100 μM tested
Protocol: as §1

[9] = MTT viability assay, HOSE cells; format: cell-based, human; details: human, percentage of control cells
Protocol: as §2, §3

[10] = tested on: HPMCs; assay: ROS production (H2DCFDA), HPMCs; format: cell-based, human; details: 24 h, percentage of control cells
Protocol: ROS production was assessed in cells probed with a fluorescent dye, 2′,7′-dichlorodihydrofluorescein diacetate (H2DCFDA; 5 μM) (Molecular Probes, Eugene, USA) for 45 min at 37°C. Fluorescence intensity in cell lysates was monitored in a Victor2 spectrofluorometer with excitation at 485 nm and emission at 535 nm.

[11] = tested on: HOSE cells; assay: Cell proliferation (CFDA SE), HOSE cells; format: cell-based, human; details: 24 h, percentage of control cells
Protocol: Cell proliferative potential was determined using Cell Proliferation Kit I (PromoKine, Heidelberg, Germany) according to the manufacturer's instructions. In brief, cells were probed for 15 min with 5-(and 6)-carboxyfluorescein diacetate, a succinimidyl ester (CFDA SE; 2 μM) which diffuses into cells, covalently binds to proteins, and becomes fluorescent upon its hydrolysis by intracellular esterases. The fluorescence emitted by the cells (the dye is inherited by the daughter cells through successive divisions) was recorded using a Victor2 spectrofluorometer (Perkin-Elmer, Turku, Finland) with excitation at 435 nm and emission at 535 nm.

[12] = tested on: OVCAR-3 cells; assay: Oxidative DNA damage (8-OH-dG immunoassay), OVCAR-3; format: cell-based, human; details: 24 h, 10, 50, 100 μM tested
Protocol: as §4

[13] = LDH release assay, HOSE cells; format: cell-based, human; details: human, percentage of control cells

Row | IC50 [2] [µM] | SMILES | incidence of apoptosis (rise in percentage of death cells), effect in words [1] | concentration of 8-OH-dG (oxidative DNA damage), effect in words [3] | 8-OH-dG ([5]; 10 μM) [%] | 8-OH-dG ([5]; 50 μM) | 8-OH-dG ([5]; 100 μM) | incidence of apoptosis (rise in percentage of death cells), effect in words [8] | ROS ([10]; 10 μM) | ROS ([10]; 50 μM) [%] | ROS ([10]; 100 μM) | Proliferation ([11]; 10 μM) | Proliferation ([11]; 50 μM) [%] | Proliferation ([11]; 100 μM) [%] | concentration of 8-OH-dG (oxidative DNA damage), effect in words [12] | further results
1 | 50 | Oc1ccc(/C=C/c2ccc(O)c(O)c2)cc1O [3,3′,4,4′-THS, 3,3′,4,4′-tetrahydroxy-trans-stilbene] | evident starting from the lowest concentration of 10 μM | increasing the concentration of 8-OH-dG in the OVCAR-3 and SKOV-3 cells starting from a dose of 10 μM | 103 ± 3 | 76 ± 3^∗# % | 71 ± 2^∗# % | evident starting from the lowest concentration of 10 μM | 104 ± 4% | 102 ± 3 | 82 ± 1^∗# % | 116 ± 2^∗ % | 103 ± 1 | 99 ± 5 | increasing the concentration of 8-OH-dG in the OVCAR-3 and SKOV-3 cells starting from a dose of 10 μM | viability at 10 µM ([2]; 10 μM, percentage of control cells): 75 ± 3%; viability at 50 µM ([2]; 50 μM, percentage of control cells): 50 ± 3%; viability at 100 µM ([2]; 100 μM, percentage of control cells): 48 ± 3%; hOgg1 mRNA expression during recovery, in words [4]: remarkably lower as compared to values characterizing cells subjected to RVT; viability at 24 h, 10 µM ([6]; 10 μM): 101 ± 2%; viability at 24 h, 50 µM ([6]; 50 μM): 100 ± 4%; viability at 24 h, 100 µM ([6]; 100 μM): 102 ± 2%; viability at 24 h, 10 µM ([7]; 10 μM): 108 ± 14%; viability at 24 h, 50 µM ([7]; 50 μM): 100 ± 4%; viability at 24 h, 100 µM ([7]; 100 μM): 102 ± 2%; viability at 24 h, 10 µM ([9]; 10 μM): 105 ± 2%; viability at 24 h, 50 µM ([9]; 50 μM): 100 ± 4%; viability at 24 h, 100 µM ([9]; 100 μM): 107 ± 2%; viability at 24 h, 10 µM ([13]; 10 μM): 101 ± 2%; viability at 24 h, 50 µM ([13]; 50 μM): 100 ± 4%; viability at 24 h, 100 µM ([13]; 100 μM): 102 ± 2%
2 | 480 | Oc1ccc(/C=C/c2cc(O)cc(O)c2)cc1 [RVT, 3,4′,5-trihydroxy-trans-stilbene, reference compound] | exhibiting its impact at concentrations of 50 and 100 μM for the A2780 and SKOV-3 cells | induced DNA injury in A2780 and SKOV-3 at 50 and 100 μM | 103 ± 5 | 102 ± 5% | 82 ± 4^∗ % | at 100 μM for the OVCAR-3 cells | 108 ± 4^∗ % | 106 ± 11 | 105 ± 7% | 103 ± 4% | 102 ± 1 | 104 ± 2 | evident only at 100 μM | 
